Laboratory results: patent US20250262333A1, “Construct for Transferring Foreign Substance, and Use Thereof” (TOAGOSEI CO., LTD., priority 2022, published 2025)
FAM = 5(6)-carboxyfluorescein (C21H12O7), a fluorescent dye

Each substance was assayed on HeLa cells (assay: Evaluation of cell membrane penetration by flow cytometry). Details: 10 μM additive, 0.5% DMSO, 20 hours at 37° C., 5% CO2, FAM fluorescence, detector FL2.
Format: cell-based, human
Description: As the eukaryotic cells, HeLa cells (established cell strain derived from a human cervical cancer cell) were used and the cell membrane penetration of the peptides 1 to 6 was analyzed. In Examples 1 to 6, the prepared samples 1 to 6 were used, respectively, and in Example 7, the FAM solution was used.
The HeLa cell was cultured in 10% fetal bovine serum (FBS)-containing Dulbecco's modified Eagle's medium (DMEM (Cat No. 043-30085, manufactured by FUJIFILM Wako Pure Chemical Corporation)), which is a normal culture medium.
The HeLa cell that adhered to a culture plate was cleaned with PBS and then, a 0.25%-trypsin/EDTA solution was added thereto, and incubation was performed for three minutes at 37° C. After the incubation, the aforementioned 10% FBS-containing DMEM was added to deactivate trypsin and then, five-minute centrifugal separation was performed at 150×g to precipitate the cells. After the supernatant generated by the centrifugal separation was removed, the 10% FBS-containing DMEM was added to the precipitate (cell pellet) to prepare a cell suspension of about 2×10^5 cells/mL. The cell suspension was added by 1 mL to a well of a commercially available six-hole (well) plate (manufactured by AGC TECHNO GLASS Co., Ltd.) so as to seed the cell (about 2×10^5 cells/well). In addition, the 2 mM sample solution 1 was diluted with the 10% FBS-containing DMEM to prepare the sample solution 1 in which the concentration of the sample 1 was 20 μM. Then, 1 mL of the 20 μM sample solution 1 was added to the well (that is, so that the concentration of the sample 1 became 10 μM and the DMSO concentration became 0.5% in the culture solution in the well). After that, the cell was incubated for 20 hours at 37° C. under a 5% CO2 condition.
After the 20-hour incubation, the culture supernatant was removed from the well and the cells in the well were cleaned twice with 1 mL of PBS. Next, 200 μL of the 0.25% trypsin/EDTA solution was added to the well and the incubation was performed for three minutes at 37° C. After the incubation, 400 μL of the 10% FBS-containing DMEM was added to the well to deactivate the trypsin. Subsequently, the cell suspension in the well was transferred to a tube and the cells were collected. After that, 600 μL of PBS was added further to the well to clean the well. Then, PBS in the well was transferred to the tube, so that the cells remaining in the well were collected in the tube. This tube was subjected to five-minute centrifugal separation at 4° C. under a condition of 210×g. After the centrifugal separation, the supernatant was removed and the precipitate (cell pellet) was suspended (cleaned) with 1 mL of PBS, which was followed by the centrifugal separation under the same condition as that described above. After this operation was repeated twice, the supernatant was removed and thus, the cells (cell pellet) cultured in a culture medium containing the sample 1 were obtained.
Regarding the obtained cells (cell pellet), the cell membrane penetration of the sample 1 was analyzed using a flow cytometer. As the flow cytometer, On-Chip Flowcytometer (manufactured by On-Chip Biotechnologies Co., LTD.) was used.
For such an analysis, the obtained cell pellet was suspended with 50 μL of PBS. To this suspension, additionally, 50 μL of 2× sample buffer for the flow cytometer was added so as to prepare a cell suspension for analysis.
Using the aforementioned flow cytometer, gating based on forward scatter (FSC) and side scatter (SSC) was performed to set a gate about a cell group to be analyzed, and the fluorescence intensity was measured about the cell group in this gate. Note that the analysis was performed so that the cell group contained at least 10000 or more cells. The fluorescence intensity was measured using a fluorescence detector FL2 of the flow cytometer (optimum detection wavelength around 543 nm) capable of detecting the fluorescence wavelength of FAM. […]
With “Ac-RSRKYTSWYVALKRWPC-FAM (Ac-RSRKYTSWYVALKRWPC-{FAM}) [Example 1]” the “MFI (mean fluorescence intensity)” value was 50.4. For “5 (6)-carboxyfluorescein [Example 7, reference compound]”, the “MFI (mean fluorescence intensity)” value was 10.5. For “Ac-RSKKYTSWYVALKR-FAM (Ac-RSKKYTSWYVALKR-{FAM}) [Example 5]”, the “MFI (mean fluorescence intensity)” value was 12.8. For Ac-RSRKYTSWYVALKK-FAM [Example 6], the “MFI (mean fluorescence intensity)” value was 11.1. “Ac-RSRKYTSWYVALKR-FAM (Ac-RSRKYTSWYVALKR-{FAM}) [Example 2, reference compound]” was tested, and the “MFI (mean fluorescence intensity)” value was 13.4. “Ac-KSRKYTSWYVALKR-FAM (Ac-KSRKYTSWYVALKR-{FAM}) [Example 4]” was tested, and the “MFI (mean fluorescence intensity)” value was 13.2. In the case of “Ac-KSKKYTSWYVALKR-FAM (Ac-KSKKYTSWYVALKR-{FAM}) [Example 3]”, the “MFI (mean fluorescence intensity)” value is reported as 14.6.

Same assay, conditions: 10 μM, 20 hours, compared with Example 2 (construct including the peptide 2)
In the case of “Ac-RSRKYTSWYVALKRWPC-FAM (Ac-RSRKYTSWYVALKRWPC-{FAM}) [Example 1]”, the “cell membrane penetration / value of MFI, comparison in words” value is reported as “remarkably higher”.
